Some test systems named below: HOP-18 NSCLC; HT29 colon; HCT-15 colon; SK-OV-3 ovarian; DMS 114 small cell lung; COLO 205 colon; TK-10 renal; NCI/ADR-RES ovarian; NCI-H460 lung.
What all share (assay): NCI tumour cell line growth inhibition, 48 h

Where “and” joins values, the source holds several entries; their conditions need not be identical. Equal values may be shown once.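 Growth conditions: 96-well plates. Treatment: test compound, 48 hours, 5 concentrations. Analysis: linear interpolation between bracketing concentrations; unreached endpoints set to highest concentration. The concentration for 50% growth inhibition is given as GI50. At the TGI there is no net growth.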

Among the data in PubChem BioAssay (NCI) are TGI and GI50 values, retold here.

Consider `CN1C(=O)C2C=CC1C1CCC2N(C)C1=O` (stereo not drawn), for which the TGI in the experiment on HOP-18 NSCLC, with HT29 colon, with HCT-15 colon, with SK-OV-3 ovarian, in the experiment with DMS 114 small cell lung and in the experiment with COLO 205 colon was > 100 µM throughout. The TGI in the experiment on TK-10 renal was > 100 µM.

For the compound `CC12CC=CCC1CCC1C2CCC2(C)C(c3ccc(=O)oc3)CCC12O` (stereo not drawn), the GI50 was 0.0485 µM with NCI/ADR-RES ovarian; 0.0633 µM in the experiment on HT29 colon; 0.105 µM in the experiment with HCT-15 colon; 0.276 µM with SK-OV-3 ovarian; 0.0338 µM in the experiment with NCI-H460 lung; 0.36 µM with COLO 205 colon. The GI50 with TK-10 renal was 0.0607 µM. In addition, the TGI in the experiment with NCI/ADR-RES ovarian is 0.276 µM; in the experiment with HT29 colon it was 0.768 µM; with HCT-15 colon, 0.458 µM; in the experiment on SK-OV-3 ovarian it was 0.688 µM; with NCI-H460 lung, 0.128 µM; in the experiment with COLO 205 colon it was 1.45 µM. The TGI in the experiment with TK-10 renal is 0.496 µM.

`COc1cc2c(c(OC)c1OC)-c1ccc(O)c(=O)cc1[C@@H](NC(C)=O)CC2`: the GI50 in the experiment on NCI/ADR-RES ovarian is 4.6 µM; in the experiment with HT29 colon, 6.91 µM; in the experiment on HCT-15 colon, 5.04 µM; in the experiment on SK-OV-3 ovarian, 11 µM; in the experiment with NCI-H460 lung, 3.9 µM; in the experiment on COLO 205 colon it was 4.1 µM. The TGI in the experiment with NCI/ADR-RES ovarian was > 100 µM and 36.2 µM; in the experiment with HT29 colon, > 100 µM and 89.7 µM; in the experiment with HCT-15 colon it was > 100 µM and 28 µM; in the experiment on SK-OV-3 ovarian it was > 100 µM; in the experiment with NCI-H460 lung it was > 100 µM and 28.6 µM; with COLO 205 colon, > 100 µM and 35.4 µM. The TGI in the experiment on TK-10 renal is > 100 µM.

For the compound `COc1ccc(/C=C\c2cc(OC)c(OC)c(OC)c2)c(NS(=O)(=O)c2ccc(Cl)cc2)c1O`, the GI50 is 0.263 µM in the experiment with NCI/ADR-RES ovarian; 2.76 µM in the experiment with HT29 colon; 0.053 µM in the experiment with HCT-15 colon; 0.229 µM in the experiment on SK-OV-3 ovarian; 0.316 µM in the experiment on NCI-H460 lung; 1.74 µM with COLO 205 colon. Moreover, the GI50 with TK-10 renal was 0.998 µM. The TGI is 22.4 µM with NCI/ADR-RES ovarian; 11.9 µM in the experiment on HT29 colon; > 100 µM in the experiment on HCT-15 colon; 24.3 µM in the experiment with SK-OV-3 ovarian; 14.4 µM in the experiment on NCI-H460 lung; 5.76 µM in the experiment on COLO 205 colon. Besides, the TGI in the experiment with TK-10 renal was found to be 27.7 µM.

Consider `C[C@]12CC[C@H]3[C@@H](CC[C@]4(O)C[C@@H](O)CC[C@]34CO)[C@@]1(O)CC[C@@H]2C1=CC(=O)OC1`, for which the TGI in the experiment with NCI/ADR-RES ovarian was 3.8 µM; with HT29 colon, 7.81 µM; in the experiment with HCT-15 colon, 4.72 µM; in the experiment on SK-OV-3 ovarian it was 6.72 µM; in the experiment on NCI-H460 lung, 1.81 µM; in the experiment with COLO 205 colon, 29.7 µM. This compound also registered a TGI with TK-10 renal of 4.91 µM.

For `COc1cc(/C=C2\CC3C4CC=C5C[C@@H](O)CC[C@]5(C)C4CC[C@]3(C)C2=O)ccc1OCCCn1ccnc1` (stereo partly drawn), the GI50 is 15.4 µM in the experiment on NCI/ADR-RES ovarian; 13.7 µM with HT29 colon; 10.2 µM in the experiment with HCT-15 colon; 29.1 µM in the experiment on SK-OV-3 ovarian; 18.6 µM with NCI-H460 lung; 26.4 µM in the experiment on COLO 205 colon. In the experiment on TK-10 renal, the GI50 was 20.4 µM. The TGI was 31.7 µM in the experiment with NCI/ADR-RES ovarian; > 100 µM with HT29 colon; 31.3 µM with HCT-15 colon; > 100 µM in the experiment with SK-OV-3 ovarian; 44 µM with NCI-H460 lung; > 100 µM in the experiment on COLO 205 colon. Moreover, the TGI with TK-10 renal amounted to 35.9 µM.

As for `CN(C)CCCc1c2ccccc2nc2ccc(Cl)cc12`, the TGI was found to be 52 µM in the experiment on NCI/ADR-RES ovarian; 28.5 µM in the experiment on HT29 colon; 93.7 µM with HCT-15 colon; 41.7 µM with SK-OV-3 ovarian; 25.3 µM in the experiment with NCI-H460 lung; 29.8 µM in the experiment with COLO 205 colon. In the experiment on TK-10 renal, this compound displayed a TGI of 27.1 µM.

As to `CCOC(=O)Nc1nc2cc(OCC)ccc2s1`, the GI50 in the experiment with NCI/ADR-RES ovarian was 6.02 µM; in the experiment on HT29 colon, 4.26 µM; in the experiment on HCT-15 colon, 4.8 µM; in the experiment on SK-OV-3 ovarian, > 100 µM; in the experiment with NCI-H460 lung, 8.02 µM; in the experiment on COLO 205 colon, 7.84 µM. For the same compound, the GI50 with TK-10 renal is > 72.9 µM. The TGI in the experiment with NCI/ADR-RES ovarian, in the experiment with HT29 colon, in the experiment on HCT-15 colon, with SK-OV-3 ovarian, with NCI-H460 lung and with COLO 205 colon was > 100 µM in each case. For the same compound, the TGI with TK-10 renal was > 100 µM.

Turning to `COC(=O)c1cc(-c2ccc(OC)cc2)[nH]c1N/N=C/c1c(Cl)cccc1Cl`, the GI50 in the experiment with NCI/ADR-RES ovarian was 0.16 µM; with HT29 colon, 0.255 µM; with HCT-15 colon it was 0.204 µM; with SK-OV-3 ovarian it was 0.188 µM; in the experiment on NCI-H460 lung it was 0.201 µM; in the experiment on COLO 205 colon, 0.846 µM. Further, in the experiment on TK-10 renal, the GI50 was 0.568 µM. For the same compound, the TGI in the experiment on NCI/ADR-RES ovarian came to 5.11 µM; in the experiment on HT29 colon, 1.26 µM; in the experiment with HCT-15 colon, 1.49 µM; in the experiment with SK-OV-3 ovarian, 2.19 µM; in the experiment on NCI-H460 lung, 0.992 µM; with COLO 205 colon, 2.93 µM. In the experiment on TK-10 renal, the TGI amounted to 13.8 µM.

As for `Cn1cc(C2=C(c3cn(C)c4cc(N)ccc34)C(=O)NC2=O)c2ccccc21`, the GI50 was 4.58 µM with NCI/ADR-RES ovarian; 1.07 µM in the experiment with HT29 colon; 1.04 µM in the experiment with HCT-15 colon; 2.25 µM with SK-OV-3 ovarian; 1.4 µM with NCI-H460 lung; 1.63 µM with COLO 205 colon. Moreover, the GI50 in the experiment on TK-10 renal was 4.03 µM. In addition, the TGI is 24.2 µM with NCI/ADR-RES ovarian; 6.8 µM in the experiment with HT29 colon; > 21.6 µM in the experiment with HCT-15 colon; > 25 µM in the experiment with SK-OV-3 ovarian; > 25 µM with NCI-H460 lung; 9.59 µM with COLO 205 colon. The same compound had a TGI with TK-10 renal of 14.3 µM.

In the case of `NC(=O)c1csc(C2CCC(CO)O2)n1` (stereo not drawn), the TGI with HOP-18 NSCLC, in the experiment on HT29 colon, with HCT-15 colon, in the experiment with SK-OV-3 ovarian, with NCI-H460 lung and in the experiment on DMS 114 small cell lung was > 100 µM each time. The TGI in the experiment on COLO 205 colon and in the experiment with TK-10 renal was > 100 µM in each case.

Turning to `Nc1nc(N)nc(CC(=O)O)n1`, the TGI in the experiment with NCI/ADR-RES ovarian, in the experiment with HT29 colon, in the experiment with HCT-15 colon, in the experiment on SK-OV-3 ovarian, in the experiment with NCI-H460 lung and in the experiment on COLO 205 colon was > 100 µM throughout. Moreover, the TGI with TK-10 renal is > 100 µM.
